Test results from patent publication US10093670B2, “Azabenzimidazole derivative having AMPK-activating activity” (Shionogi & Co., Ltd., priority 2011, dated 2018).

Molecular target: T1, human AMPK α1β1γ1 enzyme (Homo sapiens, UniProt Q13131+Q9Y478)
T1 construct: purchased Carna Biosciences, Inc
Assay: Evaluation of AMPK activator, Test Example 1 (mobility-shift kinase assay, FL-Peptide 7)
Format: biochemical
Conditions: for EC150 (compound concentration showing 150% relative to the control (100%)): human AMPK α1β1γ1, 25° C., 2 hours, 0.2 mM ATP final; for Emax: human AMPK α1β1γ1, relative to control (100%), read-out: Emax (maximum rate of increase in activity within the measurement range)
Protocol: The obtained liquid was left to stand for 10 minutes.
The obtained liquid was allowed to react at 25° C. for 2 hours, and 10 μl of 20 mM EDTA was then added thereto to stop the reaction.
To detect phosphorylated fluorescent substrates, the reaction liquid was applied to a measuring device, LabChip EZ Reader II manufactured by Caliper Life Science, Inc., for detecting fluorescence by using differences in mobility due to differences in charge. The setting conditions for the device were pressure, −1.5 PSI; upstream voltage, −2250 V; downstream voltage, −400 V; post sample buffer sip time, 40 seconds; final delay, 120 seconds; and peak order, Product First.
A conversion rate was calculated from the peak heights of the resulting substrate and product. The conversion rate when not containing a compound was used as a control, and a concentration dependent curve was made by plotting the rate of increase in activity to the control at each concentration of a compound.

T1 sequence (Q13131 10-559 limits assumed): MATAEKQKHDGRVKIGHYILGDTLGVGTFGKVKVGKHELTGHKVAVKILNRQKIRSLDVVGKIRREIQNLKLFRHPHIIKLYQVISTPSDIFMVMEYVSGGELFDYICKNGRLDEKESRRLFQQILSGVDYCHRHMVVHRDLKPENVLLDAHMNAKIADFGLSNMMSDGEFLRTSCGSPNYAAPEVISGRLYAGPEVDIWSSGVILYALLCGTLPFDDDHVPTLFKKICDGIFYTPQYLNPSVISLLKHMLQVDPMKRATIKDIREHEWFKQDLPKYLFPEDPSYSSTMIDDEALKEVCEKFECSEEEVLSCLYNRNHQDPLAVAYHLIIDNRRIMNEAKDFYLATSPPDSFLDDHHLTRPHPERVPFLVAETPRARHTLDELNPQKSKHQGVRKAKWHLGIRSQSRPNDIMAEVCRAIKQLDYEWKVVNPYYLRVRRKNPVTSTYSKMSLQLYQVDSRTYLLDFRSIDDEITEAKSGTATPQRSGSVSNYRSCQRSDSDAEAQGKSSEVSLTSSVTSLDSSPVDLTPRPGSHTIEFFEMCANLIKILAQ
T1 sequence (Q9Y478 whole entry): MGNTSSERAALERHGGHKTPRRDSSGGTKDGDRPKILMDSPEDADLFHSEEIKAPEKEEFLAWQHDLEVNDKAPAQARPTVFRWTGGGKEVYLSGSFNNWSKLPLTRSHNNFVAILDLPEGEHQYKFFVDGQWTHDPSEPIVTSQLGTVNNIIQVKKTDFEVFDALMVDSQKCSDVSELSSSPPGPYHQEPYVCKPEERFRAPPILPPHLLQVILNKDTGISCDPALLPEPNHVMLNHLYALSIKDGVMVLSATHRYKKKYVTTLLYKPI
T1 sequence (P54619 whole entry partner): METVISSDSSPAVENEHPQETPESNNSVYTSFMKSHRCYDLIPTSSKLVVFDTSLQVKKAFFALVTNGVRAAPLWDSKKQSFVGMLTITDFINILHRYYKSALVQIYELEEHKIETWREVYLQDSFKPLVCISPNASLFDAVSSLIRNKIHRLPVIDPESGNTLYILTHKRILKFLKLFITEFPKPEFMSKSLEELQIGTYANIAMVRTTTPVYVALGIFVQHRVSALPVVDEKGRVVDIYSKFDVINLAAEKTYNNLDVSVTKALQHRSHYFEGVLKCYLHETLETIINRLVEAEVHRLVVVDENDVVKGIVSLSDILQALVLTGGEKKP

SMILES	EC150 (compound concentration showing 150% relative to the control (100%)) [nM]	Emax [%]
O=C(O)CSc1nc2nc(-c3ccc(N4CCOCC4)cc3)c(Cl)cc2[nH]1 [Compound I-1-4]	160	283
O=C(O)COc1nc2nc(-c3ccc(N4CCOCC4)cc3)c(Cl)cc2[nH]1 [Compound I-1-10]	390	270
Oc1cc(COc2nc3nc(-c4ccc(N5CCOCC5)cc4)c(Cl)cc3[nH]2)on1 [Compound I-1-12]	320	263
O=C(COc1nc2nc(-c3ccc(N4CCOCC4)cc3)c(Cl)cc2[nH]1)N1CCC(F)(F)CC1 [Compound I-1-21]	730	284
CC(C#N)Oc1nc2nc(-c3ccc(N4CCOCC4)cc3)c(Cl)cc2[nH]1 (stereo not shown) [Compound I-1-27]	310	226
CC(Oc1nc2nc(-c3ccc(N4CCOCC4)cc3)c(Cl)cc2[nH]1)c1noc(=O)[nH]1 (stereo not shown) [Compound I-1-28]	210	231
CC(Oc1nc2nc(-c3ccc(N4CCOCC4)cc3)c(Cl)cc2[nH]1)C(N)=O (stereo not shown) [Compound I-1-37]	910	228
CC(Sc1nc2nc(-c3ccc(N4CCOCC4)cc3)c(Cl)cc2[nH]1)C(=O)O (stereo not shown) [Compound I-1-39]	160	258
CC(C)(Sc1nc2nc(-c3ccc(N4CCOCC4)cc3)c(Cl)cc2[nH]1)C(=O)O [Compound I-1-57]	140	277
CC(Cc1nc2nc(-c3ccc(N4CCOCC4)cc3)c(Cl)cc2[nH]1)C(=O)O (stereo not shown) [Compound I-1-62]	540	228
O=C1CCC(Oc2nc3nc(-c4ccc(N5CCOCC5)cc4)c(Cl)cc3[nH]2)CN1 (stereo not shown) [Compound I-1-68]	4900	174
O=C(O)[C@H]1CC[C@H](Oc2nc3nc(-c4ccc(-c5ccccc5)cc4)c(Cl)cc3[nH]2)CC1 [Compound I-2-30]	650	178
CC(=O)NC1CC=C(c2ccc(-c3nc4nc(O[C@H]5CC[C@H](C(=O)O)CC5)[nH]c4cc3Cl)cc2)CC1 (stereo partly shown) [Compound I-2-58]	650	169
CC(=O)N1CC=C(c2ccc(-c3nc4nc(O[C@H]5CC[C@H](C(=O)O)CC5)[nH]c4cc3Cl)cc2)CC1 [Compound I-2-59]	2300	181
O=C(O)[C@H]1CC[C@H](Oc2nc3nc(-c4ccc(-c5ccccc5O)cc4)c(Cl)cc3[nH]2)CC1 [Compound I-2-60]	49	205
O=C(c1ccc(-c2ccc(-c3nc4nc(O[C@H]5CC[C@H](C(=O)O)CC5)[nH]c4cc3Cl)cc2)cc1)N1CCOCC1 [Compound I-2-61]	72	189

SMILES	EC150 (compound concentration showing 150% relative to the control (100%)) [nM]	Emax [%]
CN(C)C(=O)N1CC(Oc2nc3nc(-c4ccc(C5=CCC(C(=O)O)CC5)cc4)c(Cl)cc3[nH]2)C1 (stereo not shown) [Compound I-2-71]	2400	193
O=C(O)C[C@H]1CC[C@H](Oc2nc3nc(-c4ccc(C5=CCOCC5)cc4)c(Cl)cc3[nH]2)CC1 [Compound I-2-85]	18	255
CC(Oc1nc2nc(-c3ccc(N4CCOCC4)cc3)c(Cl)cc2[nH]1)[C@H]1CC[C@H](C(=O)O)CC1 (stereo partly shown) [Compound I-2-88]	65	288
CC(Oc1nc2nc(-c3ccc(C4=CCC(C(=O)O)CC4)cc3)c(Cl)cc2[nH]1)c1ccccn1 (stereo not shown) [Compound I-2-104]	6400	161
CC(Oc1nc2nc(-c3ccc(N4CCCC4)cc3)c(Cl)cc2[nH]1)c1noc(=O)[nH]1 (stereo not shown) [Compound I-2-114]	49	215
O=C(O)C1(COc2nc3nc(-c4ccc(N5CCOCC5)cc4)c(Cl)cc3[nH]2)CC1 [Compound I-2-116]	130	229
CC(Oc1nc2nc(-c3ccc(N4CCOCC4)cc3)c(Cl)cc2[nH]1)C(C)(C)C(=O)O (stereo not shown) [Compound I-2-121]	160	258
CN(CCO)C(=O)N1CCC(Oc2nc3nc(-c4ccc(C5=CCC(C(=O)O)CC5)cc4)c(Cl)cc3[nH]2)CC1 (stereo not shown) [Compound I-3-2]	1.4	182
CN(C)C(=O)[C@H]1C[C@@H](Oc2nc3nc(-c4ccc(C5=CCC(C(=O)O)CC5)cc4F)c(Cl)cc3[nH]2)C1 (stereo partly shown) [Compound I-3-3]	19	271
CCC(Oc1nc2nc(-c3ccc(N4CCOCC4)cc3)c(Cl)cc2[nH]1)C(=O)O (stereo not shown) [Compound I-3-11]	61	240
CC(Oc1nc2nc(-c3ccc(C4=CCC(C(=O)O)CC4)cc3)c(Cl)cc2[nH]1)C(N)=O (stereo not shown) [Compound I-3-14]	130	232
O=C(O)C1CC=C(c2ccc(-c3nc4nc(OC5CCOCC5)[nH]c4cc3Cl)cc2)CC1 (stereo not shown) [Compound I-3-26]	68	221
CC(C)C(Oc1nc2nc(-c3ccc(N4CCOCC4)cc3)c(Cl)cc2[nH]1)C(=O)O (stereo not shown) [Compound I-3-27]	280	228
CC(=O)N1CC=C(c2ccc(-c3nc4nc(OC5CCC(C(C)(C)C(=O)O)CC5)[nH]c4cc3Cl)cc2)CC1 (stereo not shown) [Compound I-3-39]	5.1	286
CCC(Oc1nc2nc(-c3ccc(C4=CCC(NC(C)=O)CC4)cc3)c(Cl)cc2[nH]1)C(N)=O (stereo not shown) [Compound I-3-50]	160	228

Next, values leading:

EC150 (compound concentration showing 150% relative to the control (100%)) [nM]	Emax [%]	SMILES
2100	238	O=C(O)CN1CCC(Oc2nc3nc(-c4ccc(N5CCOCC5)cc4)c(Cl)cc3[nH]2)CC1.O=CO [Compound I-1-11]
3100	226	CN1CCC(Oc2nc3nc(-c4ccc(N5CCOCC5)cc4)c(Cl)cc3[nH]2)CC1 [Compound I-1-25]
200	280	CS(=O)(=O)N1CCC(Oc2nc3nc(-c4ccc(N5CCOCC5)cc4)c(Cl)cc3[nH]2)CC1 [Compound I-1-32]
70	236	NC(=O)[C@H]1CC[C@H](Oc2nc3nc(-c4ccc(N5CCOCC5)cc4)c(Cl)cc3[nH]2)CC1 [Compound I-2-33]
51	293	O=C(O)C[C@H]1CC[C@H](Oc2nc3nc(-c4ccc(N5CCOCC5)cc4)c(Cl)cc3[nH]2)CC1 [Compound I-2-40]
250	212	CC(C)(COc1nc2nc(-c3ccc(N4CCOCC4)cc3)c(Cl)cc2[nH]1)C(=O)O [Compound I-2-109]
	194	O=C(O)[C@H]1C[C@H](Oc2nc3nc(-c4ccc(N5CCOCC5)cc4)c(Cl)cc3[nH]2)C1 [Compound I-2-118]
21	211	Clc1cc2[nH]c(OC3CCOCC3)nc2nc1-c1ccc(N2CCOCC2)cc1 [Compound I-3-12]
230	210	CC(C)(C(N)=O)C1CCC(Oc2nc3nc(-c4ccc(N5CCOCC5)cc4)c(Cl)cc3[nH]2)CC1 (stereo not shown) [Compound I-3-25]
7.6	275	CC(C)(C(=O)O)C1CCC(Oc2nc3nc(-c4ccc(N5CCCC5)cc4)c(Cl)cc3[nH]2)CC1 (stereo not shown) [Compound I-3-44]
4.5	338	CC(C)(C(=O)O)[C@]1(O)CC[C@@H](Oc2nc3nc(-c4ccc(N5CCCCC5)cc4)c(Cl)cc3[nH]2)CC1 [Compound I-3-51]
2.3	400	CN1CCc2cc(-c3nc4nc(O[C@H]5CC[C@](O)(C(C)(C)C(=O)O)CC5)[nH]c4cc3Cl)ccc21 [Compound I-3-52]
51	261	O=C(O)C1CCC(Oc2nc3nc(-c4ccc(N5CCOCC5)cc4)c(Cl)cc3[nH]2)C1 (stereo not shown) [Compound I-3-53]
22	333	CC(C)(C(=O)O)[C@]1(O)CC[C@@H](Oc2nc3nc(-c4c(F)cc(N5CCOCC5)cc4F)ccc3[nH]2)CC1 [Compound I-3-62]
24	233	CC(=O)NC1CCN(c2ccc(-c3nc4nc(OC5CCC(C(C)(C)C(=O)O)CC5)[nH]c4cc3Cl)cc2)CC1 (stereo not shown) [Compound I-3-65]
